Paper PMC7413254 (Nature Communications, 2020)
Where two headings read alike, the source gives them in different places.

Legend:
PfCRT^Ecu1110 = PfCRT^Ecu1110 (Plasmodium falciparum, UniProt Q9N623, A220S/I356L/K76T/N326D); test: cell-based; type: cell-based; conditions: […]
Method in brief: (§1)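 Transport measured in Xenopus oocytes expressing the transporters, 1.5 h at 27.5 °C in ND96 pH 5.5 unless noted. For trans-stimulation, VF-6 injected in 25 nL ND96 at pH 5.0–7.0 or Na^+-free (choline) buffer; intracellular levels based on ~400 nL oocyte volume. Ten oocytes per treatment, ≥4 experiments.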

PfCRT^Dd2 = PfCRT^Dd2 (Plasmodium falciparum, UniProt Q9N623, A220S/I356T/K76T/M74I/N326S/N75E/Q271E/R371I); test: cell-based; type: cell-based; conditions: […]; for activity at 45000 µM: [test solute]i = 45 mM (30 mM for some solutes due to solubility)
Method in brief: as §1

PfNT1 = biological target: T1, PfNT1 (Plasmodium falciparum, UniProt Q8IDM6); test: cell-based; type: cell-based; conditions: for activity at 5000 µM: total [3H]CQ transport
T1 construct: expressed in transfected cells; host or cells: Xenopus laevis oocytes (stage V-VI), cRNA-injected
Method in brief: as §1

non-expressing oocytes [1] = test: cells; type: cell-based, Xenopus laevis; conditions: Xenopus laevis, total [3H]CQ transport; for inhibition at 500 µM: [test solute] = 0.5 mM; for inhibition at 1000 µM: [test solute] = 1 mM; for inhibition at 2000 µM: [test solute] = 2 mM
Method in brief: (§2)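 Oocytes expressing PfCRT isoforms, or non-expressing controls, were incubated 1.5 h at 27.5 °C in ND96 buffer pH 5.5 (96 mM NaCl, 2 mM KCl, 1 mM MgCl2, 1.8 mM CaCl2, 10 mM MES, 10 mM Tris-base), measuring uptake from acidic medium into cytosol. Oocytes were washed ice-cold, SDS-lysed and counted by scintillation.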

PfCRT^3D7 = PfCRT^3D7 (Plasmodium falciparum, UniProt Q8IBZ9); test: cell-based; type: cell-based; conditions: total [3H]CQ transport; for inhibition at 500 µM: [test solute] = 0.5 mM; for inhibition at 1000 µM: [test solute] = 1 mM; for inhibition at 2000 µM: [test solute] = 2 mM
Method in brief: as §2

non-expressing oocytes [2] = type: cell-based, Xenopus laevis; conditions: total [3H]CQ transport; for Uptake of [3H]CQ (% non-expressing oocyte control), trans-stimulation: non-expressing oocytes, normalised to the oocyte type control; for Uptake of [3H]CQ (% PfCRTDd2 control), trans-stimulation, non-expressing oocytes: mean ± SEM, SEM
Method in brief: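 Oocytes (ten per treatment, ≥4 independent frogs/days) were preloaded by injecting VF-6 in 25 nL ND96 at pH 5.0, 5.5, 6.0 or 7.0, or Na^+-free choline buffer, then uptake run 1.5 h, 27.5 °C, ND96 pH 5.5 by default. Internal concentrations assumed ~400 nL oocyte volume.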

PfCRT = test: Test of solutes as potential co-substrates for influx of VF-6 via PfCRT into the oocyte; type: cell-based, Plasmodium falciparum; parameters: key: X: Compounds that have been tested as potential co-substrates but are not required for influx of VF-6 via PfCRT into the oocyte; conditions: X = tested
[3] = Oocyte, mean ± SEM, SEM, read-out: Uptake of [3H]CQ (% PfCRTDd2 control), cis-inhibition, non-expressing oocytes
[4] = non-expressing oocytes, normalised to the oocyte type control, read-out: Uptake of [3H]CQ (% non-expressing oocyte control), cis-inhibition
[5] = PfCRT3D7 oocytes, normalised to the oocyte type control, read-out: Uptake of [3H]CQ (% PfCRT3D7 control), cis-inhibition
[6] = mean ± SEM, SEM, read-out: Uptake of [3H]CQ (% PfCRTDd2 control), cis-inhibition, PfCRT3D7

T1 sequence (Q8IDM6 whole entry): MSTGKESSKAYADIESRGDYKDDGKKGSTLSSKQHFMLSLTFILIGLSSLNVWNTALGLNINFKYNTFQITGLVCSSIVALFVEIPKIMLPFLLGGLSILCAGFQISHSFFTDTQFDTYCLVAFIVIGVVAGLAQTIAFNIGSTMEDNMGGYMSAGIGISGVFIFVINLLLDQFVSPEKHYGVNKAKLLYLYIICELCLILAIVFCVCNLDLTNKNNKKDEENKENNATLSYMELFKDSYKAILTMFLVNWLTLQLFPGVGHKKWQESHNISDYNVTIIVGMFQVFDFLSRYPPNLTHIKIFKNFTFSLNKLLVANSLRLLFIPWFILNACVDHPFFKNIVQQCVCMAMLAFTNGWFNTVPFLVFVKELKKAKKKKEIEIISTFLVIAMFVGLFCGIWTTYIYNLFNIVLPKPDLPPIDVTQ
PfCRT^Ecu1110, sequence (Q9N623 whole entry A220S/I356L/K76T/N326D): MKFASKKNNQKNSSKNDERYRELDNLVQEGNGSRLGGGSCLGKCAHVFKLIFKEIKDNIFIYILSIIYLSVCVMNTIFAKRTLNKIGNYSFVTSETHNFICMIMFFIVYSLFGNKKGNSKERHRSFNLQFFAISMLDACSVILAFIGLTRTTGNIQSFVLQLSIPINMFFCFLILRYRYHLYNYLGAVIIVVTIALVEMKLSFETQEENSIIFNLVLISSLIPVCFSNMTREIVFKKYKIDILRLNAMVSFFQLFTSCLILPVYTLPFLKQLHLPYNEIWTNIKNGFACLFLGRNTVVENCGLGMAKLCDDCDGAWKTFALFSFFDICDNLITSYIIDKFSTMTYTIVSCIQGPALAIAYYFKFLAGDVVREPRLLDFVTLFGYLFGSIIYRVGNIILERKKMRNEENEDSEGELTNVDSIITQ
PfCRT^3D7, sequence (Q8IBZ9 59-398): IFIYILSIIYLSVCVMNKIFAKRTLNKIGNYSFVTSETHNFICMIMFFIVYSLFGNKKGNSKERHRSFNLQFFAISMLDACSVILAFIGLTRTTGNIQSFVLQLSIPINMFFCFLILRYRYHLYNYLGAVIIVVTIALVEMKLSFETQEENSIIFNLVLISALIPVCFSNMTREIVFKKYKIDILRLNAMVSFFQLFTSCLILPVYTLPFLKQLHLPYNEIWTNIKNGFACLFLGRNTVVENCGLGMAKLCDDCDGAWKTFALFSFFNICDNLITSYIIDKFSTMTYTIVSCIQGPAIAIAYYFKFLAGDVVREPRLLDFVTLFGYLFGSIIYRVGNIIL
PfCRT^Dd2, sequence (Q9N623 whole entry A220S/I356T/K76T/M74I/N326S/N75E/Q271E/R371I): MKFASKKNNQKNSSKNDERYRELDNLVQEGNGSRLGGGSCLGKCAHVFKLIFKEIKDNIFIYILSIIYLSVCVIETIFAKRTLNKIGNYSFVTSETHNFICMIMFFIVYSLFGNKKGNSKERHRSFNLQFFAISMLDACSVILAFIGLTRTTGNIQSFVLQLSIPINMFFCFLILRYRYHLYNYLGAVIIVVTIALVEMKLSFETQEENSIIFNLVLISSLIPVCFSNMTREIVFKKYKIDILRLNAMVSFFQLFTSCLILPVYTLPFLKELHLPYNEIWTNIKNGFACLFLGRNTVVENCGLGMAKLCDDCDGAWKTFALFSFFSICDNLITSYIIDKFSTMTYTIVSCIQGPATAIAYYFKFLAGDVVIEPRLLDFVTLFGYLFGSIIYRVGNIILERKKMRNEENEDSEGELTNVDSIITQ

N=C(N)NCCC[C@H](N)C(=O)O [L-arginine]
activity at 5000 µM (PfCRT^Ecu1110; pH 5.5, read-out: Uptake of [3H]CQ (% PfCRTEcu1110 control), trans-stimulation, PfCRTEcu1110 oocytes, [test solute]i = 5 mM, total [3H]CQ transport, normalised to the oocyte type control): 100 ± 3.7%
activity at 45000 µM (PfCRT^Ecu1110; pH 5.5, read-out: Uptake of [3H]CQ (% PfCRTEcu1110 control), trans-stimulation, PfCRTEcu1110 oocytes, [test solute]i = 45 mM (30 mM for some solutes due to solubility), total [3H]CQ transport, normalised to the oocyte type control): 99 ± 2.5%
activity at 5000 µM (PfCRT^Ecu1110; read-out: Uptake of [3H]CQ (% PfCRTDd2 control), trans-stimulation, PfCRTEcu1110, total [3H]CQ transport, [test solute]i = 5 mM (intracellular), mean ± SEM, SEM): 36 ± 2.1%
activity at 45000 µM (PfCRT^Ecu1110; read-out: Uptake of [3H]CQ (% PfCRTDd2 control), trans-stimulation, PfCRTEcu1110, total [3H]CQ transport, [test solute]i = 45 mM (intracellular; 30 mM for some solutes due to solubility), mean ± SEM, SEM): 35 ± 2.2%
activity at 5000 µM (PfCRT^Dd2; pH 5.5, read-out: PfCRT-mediated [3H]CQ transport, trans-stimulation (% PfCRTDd2 control), [test solute]i = 5 mM (intracellular), PfCRTDd2 oocytes, normalised to oocyte type control): 98 ± 2.1%
activity at 5000 µM (PfCRT^Dd2; pH 5.5, read-out: Uptake of [3H]CQ (% PfCRTDd2 control), trans-stimulation, PfCRTDd2, total [3H]CQ transport, [test solute]i = 5 mM (intracellular), mean ± SEM, SEM): 100 ± 3.5%
activity at 5000 µM (PfCRT^Dd2; pH 5.5, read-out: Uptake of [3H]CQ (% PfCRTDd2 control), trans-stimulation, PfCRTDd2 oocytes, [test solute]i = 5 mM, total [3H]CQ transport, normalised to the oocyte type control): 100 ± 3.5%
activity at 45000 µM (PfCRT^Dd2; pH 5.5, read-out: Uptake of [3H]CQ (% PfCRTDd2 control), trans-stimulation, PfCRTDd2 oocytes, total [3H]CQ transport, normalised to the oocyte type control): 97 ± 4.2%
activity at 5000 µM (PfCRT^Dd2; pH 5.5, read-out: [3H]CQ transport (% PfCRTDd2 control), trans-stimulation, PfCRTDd2, trans-stimulation, [test solute]i = 5 mM (injected), PfCRT-mediated component (background subtracted), mean ± SEM, SEM): 98 ± 2.1%
activity at 45000 µM (PfCRT^Dd2; pH 5.5, read-out: [3H]CQ transport (% PfCRTDd2 control), trans-stimulation, PfCRTDd2, trans-stimulation, PfCRT-mediated component (background subtracted), mean ± SEM, SEM): 95 ± 2.5%
activity at 5000 µM (PfNT1; PfNT1 oocytes, [test solute]i = 5 mM, normalised to the oocyte type control, read-out: Uptake of [3H]CQ (% PfNT1 control), trans-stimulation): 98 ± 3.8%
activity at 45000 µM (PfNT1; SEM, read-out: Uptake of [3H]CQ (% PfCRTDd2 control), trans-stimulation, PfNT1): 3.1 ± 0.07%
activity at 45000 µM (PfNT1; read-out: Uptake of [3H]CQ (% PfNT1 control), trans-stimulation): 98 ± 3.2%
activity at 5000 µM (PfNT1; [test solute]i = 5 mM (intracellular), mean ± SEM, SEM, read-out: Uptake of [3H]CQ (% PfCRTDd2 control), trans-stimulation, PfNT1): 3.3 ± 0.03%
inhibition at 500 µM (non-expressing oocytes [1]; [3]): 2.5 ± 0.06%
inhibition at 1000 µM (non-expressing oocytes [1]; [3]): 2.7 ± 0.06%
inhibition at 2000 µM (non-expressing oocytes [1]; [3]): 2.1 ± 0.1%
inhibition at 500 µM (non-expressing oocytes [1]; [4]): 99 ± 3.7%
inhibition at 1000 µM (non-expressing oocytes [1]; [4]): 99 ± 2.6%
inhibition at 2000 µM (non-expressing oocytes [1]; [4]): 98 ± 5.2%
inhibition at 500 µM (PfCRT^3D7; [5]): 100 ± 4.2%
inhibition at 1000 µM (PfCRT^3D7; [5]): 99 ± 5.7%
inhibition at 2000 µM (PfCRT^3D7; [5]): 100 ± 5.3%
inhibition at 500 µM (PfCRT^3D7; [6]): 2.4 ± 0.07%
inhibition at 1000 µM (PfCRT^3D7; [6]): 2.9 ± 0.05%
inhibition at 2000 µM (PfCRT^3D7; [6]): 3.3 ± 0.03%
Uptake of [3H]CQ (% non-expressing oocyte control), trans-stimulation (non-expressing oocytes [2]; [test solute]i = 5 mM): 97 ± 4.1 % non-expressing oocyte control
Uptake of [3H]CQ (% non-expressing oocyte control), trans-stimulation (non-expressing oocytes [2]; [test solute]i = 45 mM (30 mM for some solutes due to solubility)): 98 ± 3.9 % non-expressing oocyte control
Uptake of [3H]CQ (% PfCRTDd2 control), trans-stimulation, non-expressing oocytes (non-expressing oocytes [2]; [test solute]i = 5 mM (intracellular)): 2.7 ± 0.07 % PfCRTDd2 control
Uptake of [3H]CQ (% PfCRTDd2 control), trans-stimulation, non-expressing oocytes (non-expressing oocytes [2]; [test solute]i = 45 mM (intracellular; 30 mM for some solutes due to solubility)): 3.0 ± 0.01 % PfCRTDd2 control
Tested as potential co-substrate but not required for influx of VF-6 via PfCRT into the oocyte (PfCRT): X
